Results as given in patent publication US9988635B2, “Modulation of growth hormone receptor expression and insulin-like growth factor expression” (Antisense Therapeutics Limited, priority 2003, dated 2018).
In the oligonucleotide strings, read from the 5' end, every base follows the letter of its sugar. An asterisk marks phosphorothioate; unmarked linkages are phosphodiester. Other units and linkages are bracketed, terminal groups are in braces. A string of capitals states the bases alone. e = 2'-O-(2-methoxyethyl) (MOE); [5mC] = 5-methylcytosine; d = 2'-deoxy (DNA)

Legend:
[1] = cited from earlier work
serum IGF-I [2] = conditions: animal models; decreased tumor volume in breast cancer; cited from earlier work
[3] = tested on: growth hormone receptor mRNA; experiment: Growth hormone receptor mRNA levels in liver, 2 week study; type: in vivo, mouse; conditions: 30 mg/kg; two-week study
Procedure: (§1) A two-week study was done in similar fashion to the one-week study in Example 18, this time using ISIS 227446 at doses of 3, 5, 10, 20 and 30 mg/kg. The mismatch control was given at the same doses. Mice were treated with antisense compound or saline every other day for 14 days.
Growth hormone receptor mRNA levels in liver tissue samples from treated and untreated mice in this two-week study were assayed. The growth hormone receptor antisense inhibitor ISIS 227446 reduced growth hormone receptor mRNA levels in liver after the two-week study by 50% at the 20 mg/kg dose relative to saline control (p<0.001). The 30 mg/kg dose of ISIS 227446 yielded a 53% decrease in growth hormone receptor mRNA (p<0.0001). The mismatch control oligonucleotide ISIS 261303 (SEQ ID NO: 267), at 30 mg/kg, reduced growth hormone receptor mRNA levels by approximately 3%.

[4] = tested on: serum insulin-like growth factor-I; experiment: Serum IGF-I by radioimmunoassay, 1 week pilot study in Balb/C(a) mice; type: in vivo, mouse
Procedure: Forty male Balb/C(a) mice weighing 9 to […] were placed into cages, 4 animals per cage, and allowed to assimilate into their environment with new littermates ˜1 week prior (Day −7) to the commencement of 1 week study. Mice of this age would be at their maximum growth rate. Their body weights were measured and recorded every second day during this period. When mice weighed 11 g (day −2), a blood sample was collected under anesthesia as described below, and a serum IGF-I assay was performed to determine pre-treatment values and to aid in the assigning of mice to treatment groups in order to reduce animal variability. To obtain the blood sample, the animals were anaesthetized with pentobarbital (50 mg/kg i.p.) and non-fasting blood samples collected exactly 5 minutes later from the retrobulbar plexus through heparinized capillary tubes under light ether anesthesia. The 40 animals were placed into five groups with each group having a similar weight average and similar IGF-I average concentration for the trial.
Animals (n=8/group) were designated to the following five treatment groups:
(§2) Saline, antisense, mismatch control and octreotide samples were prepared, and coded for blinding. Animals were given a subcutaneous dose of saline every second day, and mismatch control or antisense with administration on days 0, 2, 4, 6. Animals were given twice daily doses of 25 μg octreotide. Animals were housed 4 per cage, for the duration of one week. They had access to a pre-determined quantity of standard mouse food and water at all times throughout the experiment. They were housed in a quiet, temperature- and humidity-maintained environment for the entirety of the study. At day 0 and before treatment on each day or second day, the animals had their body weight and food intake measured, enabling the correct dose of agent to be administered. The animals were monitored closely for any changes in fur, skin, eye, locomotion or other changes in behavior. No problems were observed. Every second day from day −7 to day 7 body weight and food intake were measured.
On day 7, one day after the last dose of antisense, and/or after the last octreotide dose, the animals were anaesthetized with pentobarbital (50 mg/kg i.p.) and non-fasting blood samples collected exactly 5 minutes later from the retrobulbar plexus through heparinized capillary tubes under light ether anesthesia (as on day −7 and 0).
At day −2 and day 7, serum IGF-I measurement was done by radioimmunoassay. Serum IGF-I level is the most widely used measure of growth hormone biological activity in human therapy. It is used to measure the efficacy of growth hormone antagonist treatments like Trovert, which block cells' responsiveness to excess growth hormone, and dopamine agonists and octreotide somatostatin […] drugs that block growth hormone secretion from the pituitary.

growth hormone receptor = experiment: [125I] hGH specific binding assay on liver microsomal membranes of treated mice; type: in vivo, mouse
Procedure: Specific binding assays were carried out with liver tissue using iodinated human growth hormone [^125I] hGH.
Microsomal membrane preparations were obtained as follows. 400 mg of tissue powder was homogenized in cold homogenizing buffer (50 mM Tris/HCl, 250 mM sucrose, pH 7.4). This was centrifuged at 2000 rpm for 10 min at 3° C. and the supernatant was saved. This was centrifuged again at 15,000 rpm for 20 min. Pellets were resuspended in 0.5 ml of RRA buffer with inhibitor (50 mM Tris, 20 mM MgCl2, pH 7.4). Microsomal preparation samples were stored at −80° C. until the specific binding assay.
The [^125I] hGH specific binding assay was done as follows. Four glass tubes were set up for each sample, two for (−), two for (+). Different sample and solutions were added in each tube as follows (i) 0.2 ml RRA buffer (50 mM Tris, 20 mM MgCl2, 0.1% BSA, pH 7.4); (ii) 0.1 ml membrane (½ or ¼ dilution); (iii) 0.1 ml bGH (10 μg/ml) for the (+) tube or 0.1 ml RRA buffer for the (−) tube; and (iv) 0.1 ml [^125I]-hGH tracer.
Samples were incubated at 4° C. with shaking overnight. The reaction was stopped with 2.5 ml of cold RRA, and the sample centrifuged at 2800 rpm for 25 min at 4° C. Supernatant was aspirated and pellets counted using the γ-counter. The specific binding capacity was calculated as: CPM(−)-CPM(+). Protein content of the microsomal samples was determined by the BCA protein assay.

[5] = Body weight, body length, organ weights and food intake, 1 week pilot study; type: in vivo, mouse; conditions: 30 mg/kg every second day
Procedure: as §2
The serum remaining following the insulin-like growth factor-1 assay was isolated and stored at −80° C. The whole liver was removed rapidly for weighing and snap-frozen in labelled aluminum parcels by submersion in liquid-nitrogen. […]
This confirms published results of others. […] Weight was measured in two ways: weight trend (live animal), and final carcass weight. […]

serum IGF-I [6] = experiment: Serum IGF-I, 2 week study in mice; type: in vivo, mouse; conditions: 3 mg/kg; equivalent to saline (untreated) control (separate experiment)
Procedure: as §1
P-values were determined by t-test.

[7] = 30 mg/kg s.c. once every 2 days, 1 week
[8] = liver microsomal membranes, 30 mg/kg every second day for one week
[9] = 30 mg/kg s.c. every second day for one week
[10] = 30 mg/kg every second day for one week

## Pegvisomant [Trovert]
[1]; clinical trial experience
  drop-out rate: 10%
[1]; human therapeutic Trovert doses, 12 week and greater than 1 year studies
  serum insulin-like growth factor-I levels reduced by: 50%
[1]; immunogenicity
  antibodies being made to Trovert, time of dosing: ≤ 1 month
[1]; patients with acromegaly
  effective in % of patients: 90-95%
Serum IGF-I [2]
  reduction of serum IGF-I: 20-50%

## ISIS 261303: negative control oligonucleotide, 8-base mismatch to ISIS 227446 (DNA AGAGAGCTACCTAACTAACA; chemistry not given here) [reference compound]
[3]
  reduction of growth hormone receptor mRNA levels in liver: approximately 3%
[4]; [7]
  % IGF-I reduction at day 7 compared to saline control at day 7: 21%
  IGF-I (ng/ml) Day 7: 81.1 ± 19.16 ng/mL
[4]; 30 mg/kg s.c. once every 2 days, 1 week, listed as Mismatch
  % IGF-I reduction at day 7 compared to saline control at day 7: 20.98%
[4]; pre-treatment value, 30 mg/kg once every 2 days group
  IGF-I (ng/ml) Day −2: 184.87 ± 55.6 ng/mL
Growth hormone receptor; 30 mg/kg
  effect on growth hormone receptor levels compared to the control saline group: no effect
Growth hormone receptor; [8]
  Specific binding/mg protein (cpm) ¼ dilution: 8431 ± 2663 cpm
  Specific binding/mg protein (cpm) ½ dilution: 7090 ± 1877 cpm

## acaaagatccatacctgaga (eA*e[5mC]*eA*eA*eA*dG*dA*dT*d[5mC]*d[5mC]*dA*dT*dA*d[5mC]*d[5mC]*eT*eG*eA*eG*eA; antisense) [ISIS 227446]
[5]
  influence on body weight or organ weights: not sufficient to influence body weight or organ weights
[3]
  reduction of growth hormone receptor mRNA levels in liver: 53%
[4]; [9]
  serum IGF-I as % of the control (saline) group: 55%
[4]; [7]
  % IGF-I reduction at day 7 compared to saline control at day 7: 45%
[4]; 30 mg/kg s.c. once every 2 days, 1 week, listed as ASO
  % IGF-I reduction at day 7 compared to saline control at day 7: 44.51%
Growth hormone receptor; [10]
  reduction of specific binding compared to saline, ¼ dilution: 39%
  reduction of specific binding compared to saline, ½ dilution: 26%
Growth hormone receptor; [9]
  growth hormone receptor levels (growth hormone binding activity) as % of control (saline) group: 61%
Growth hormone receptor; ½ dilution experiment, 30 mg/kg
  growth hormone receptor levels as % of the control (mismatch) group: 59%
Serum IGF-I [6]
  effect on serum IGF-I levels: no effect
